Laboratory results taken from US12636284B2, “Compositions for use in the prevention and/or treatment of intellectual disability and neurodegenerative diseases in a subject with down syndrome” (UNIVERSITA' DEGLI STUDI DI ROMA “LA SAPIENZA”, priority 2021, dated 2026).

Tests used:
DYRK1A protein = DYRK1A protein levels in primary hippocampal neurons isolated from Ts2Cje mice; type: cell-based, mouse; conditions: 1, 5, 10 μM for 24 hours, vs untreated Ts2Cje
Description: For Western blots, 20 μg of proteins from the hippocampus of mice belonging to the four experimental groups were separated by 4-15% SDS-PAGE Criterion™ TGX (Tris-Glyicine eXtended) Stain-Free™ (Bio-rad, Hercules, CAUSE). This type of gel allows a rapid acquisition of the protein run in the ultraviolet (UV) by Chemidoc™ MP imaging systems (Bio-rad, Hercules, CA, USA). Therefore, the gel, once the image has been acquired, represents the total of the loaded proteins (Total Load), which will then be used to normalize the specific proteins to be examined. After electrophoresis and gel imaging, proteins are transferred via the semi-dry TransBlot Turbo apparatus (Bio-Rad Laboratories) onto nitrocellulose membranes (Bio-Rad, Hercules, CA, USA). Nitrocellulose membranes are blocked with 3% bovine serum albumin (BSA) in a solution of Tween 20-TBS and incubated overnight at 4° C. using specific primary antibodies: p(T216)-GSK3B (1:1000, Santa Cruz, #sc-135653), p(S9)-GSK3β (1:1000, Cell Signaling, #5558S), GSK3β (1:1000 Abcam, #93926) and DYRK1A (1:1000, Cell Signaling, #8765S), MAPK44/42 (1:1000, Cell Signaling, #9102), p(Thr202/Tyr204)-MAPK44/42 (1 1000, Cell Signaling, #9101), Akt (1:2000, Bio-Rad, # vma00253K), p(S473) Akt (1:1000, Cell Signaling, #4060S). After three washes with a T-TBS buffer solution, membranes were incubated for 1 hour at room temperature with the secondary antibodies. Secondary antibodies with peroxidase activity are anti-mouse or anti-rabbit (1:5000, Bio-rad, Hercules, CA, USA). Membranes were developed using Clarity Enhanced Chemiluminescence (ECL), a chemiluminescent substrate (Bio-rad, Hercules, CA, USA) and acquired with Chemidoc Mp (Bio-rad, Hercules, CA, USA). Finally, the results obtained were analyzed using the ImageLab program (Bio-rad, Hercules, CA, USA).
In order to isolate primary hippocampal neurons, hippocampi from Ts and euploid mice were mechanically dissociated in PBS (with Ca^2+ and Mg^2−) and centrifuged (3 minutes, 1100 rpm, 25° C.). […]

GSK3b protein = experiment: GSK3b activation (pSer9/pTyr216 ratio) in primary hippocampal neurons isolated from Ts2Cje mice; type: cell-based, mouse; conditions: 1, 5, 10 μM for 24 hours
Description: For Western blots, 20 μg of proteins from the hippocampus of mice belonging to the four experimental groups were separated by 4-15% SDS-PAGE CriterionTM […] (Bio-rad, Hercules, CAUSE). […] Therefore, the gel, once the image has been acquired, represents the total of the loaded proteins (Total Load), which will then be used to normalize the specific proteins to be examined. After electrophoresis and gel imaging, proteins are transferred via the semi-dry TransBlot Turbo apparatus (Bio-Rad Laboratories) onto nitrocellulose membranes (Bio-Rad, Hercules, CA, USA). Nitrocellulose membranes are blocked with 3% bovine serum albumin (BSA) in a solution of Tween 20-TBS and incubated overnight at 4° C. using specific primary antibodies: p([…])-GSK3B (1:1000, Santa Cruz, #sc-135653), p(S9)-GSK3β (1:1000, Cell Signaling, #5558S), GSK3β (1:1000 Abcam, #93926) and DYRK1A (1:1000, Cell Signaling, #8765S), MAPK44/42 (1:1000, Cell Signaling, #9102), p[…])-MAPK44/42 (1 1000, Cell Signaling, #9101), Akt (1:2000, Bio-Rad, # vma00253K), p(S473) Akt (1:1000, Cell Signaling, #4060S). After three washes with a T-TBS buffer solution, membranes were incubated for 1 hour at room temperature with the secondary antibodies. Secondary antibodies with peroxidase activity are anti-mouse or anti-rabbit (1:5000, Bio-rad, Hercules, CA, USA). […] Finally, the results obtained were analyzed using the ImageLab program (Bio-rad, Hercules, CA, USA). […] In order to isolate primary hippocampal neurons, hippocampi from Ts and euploid mice were mechanically dissociated in PBS (with Ca^2+ and […]) and centrifuged (3 minutes, 1100 rpm, 25° C.). Subsequently, the pellet was resuspended in 0.25% trypsin solution and centrifuged further for 3 minutes at 1100 rpm at Tamb. At this point, the cell extract was resuspended in MEM 1 culture medium (Minimum Essential Medium complemented with fetal bovine serum (FBS-1%), L-glutamine 200 mM (1%), glucose 25 mM (1%), gentamicin 0.1 mg/ml) and centrifuged for 10 minutes, 1100 rpm at 25° C. […]

Structure (SMILES) | levels of the DYRK1A protein in Ts2Cje neurons (DYRK1A protein) | activity of the GSK3B protein in Ts2Cje neurons (GSK3b protein)
Cn1c(=O)cc(N2CCC[C@@H](N)C2)n(Cc2ccccc2C#N)c1=O [alogliptin] | significant reduction | significant increase
N#C[C@@H]1CCCN1C(=O)CNC12CC3CC(CC(O)(C3)C1)C2 [vildagliptin] | significant reduction | significant increase
